This is an account of results in patent US10196357B2, “Biaryl compositions and methods for modulating a kinase cascade” (Athenex, Inc., priority 2007, dated 2019).

pIC50: −log10 of the molar value. Values joined by “and” are separate entries in the source; they are usually repeats but may differ in a detail not shown here. Equal entries are not always repeated.

One series deals with COLO-320DM. Briefly: MTT growth inhibition, Dasatinib-resistant COLO-320DM. Particulars: 8.0×10^3 cells/well, […] FBS, 78 Hr. Type of series: cell-based, human.
The next series deals with Shc Y239/240. In words: intracellular phosphorylation, Shc Y239/240. In kind it is cell-based. Particulars: whole cells. The method, then:
HT29 (colon cancer) and c-Src527F/NIH-3T3 (Src transformed) cell lines were treated with KX2-391 or with AstraZeneca's ATP competitive Src inhibitor AZ28. AZ28 serves as a positive comparator to show what a validated Src inhibitor should do in these assays. After treatment with compound, cells were lysed, subjected to PAGE and probed with a battery of antibodies. […] In addition, off-target protein phosphorylation was also investigated. Further, induction of apoptosis was evaluated via Caspase 3 cleavage. Multiple doses of each compound were tested because the trends in response to increasing drug concentration are the most reliable indicator of activity.
The same range of multiples of the GI50 for AZ28 in these two cell lines was run as a comparison.
KX2-391 and AZ28 inhibited Src transphosphorylation.

Another series deals with SKOV-3 (Ovarian). In words: growth inhibition (BrdU), SKOV-3. Particulars: SKOV-3 (Ovarian) cells. Type of series: cell-based, Human. The text has this:
(§1) Growth Inhibition. […] T1 values≤T0 values were designated as T, cytotoxicity.

A further series deals with K562 (CML). In words: growth inhibition (BrdU), K562. Type of series: cell-based, Human. Particulars: K562 (CML).
Description: as §1

For series [1], the system named is CCRF-HSB-2 (Adult lymphoblastic leukemia). Briefly: growth inhibition, CCRF-HSB-2. Type of series: cell-based, Human. Particulars: read-out: GI50.
The next series has as its system L3.6pl cells. Briefly: growth inhibition (BrdU), L3.6pl. Type of series: cell-based, human. The conditions noted are these: L3.6pl (Pancreas) cells, single agent. The text has this: L3.6pl cells are previously described in Trevino et al. Am J Pathol.
A further series deals with Lck Y405. Briefly: whole cell phosphorylation, Lck. In kind it is cell-based. Particulars: whole cells.
The test system of series [2] is Ba/F3 + BCR-Abl T315I mutant. Briefly: MTT growth inhibition, Ba/F3 + BCR-Abl T315I. Type of series: cell-based. The conditions noted are these: 96 hrs. The text has this: Cultures of Ba/F3 cells were also transfected to express wild-type (WT) Bcr-Abl, E255K mutation of Bcr-Abl, or T315I mutation of Bcr-Abl and cultured in 96-well plates in complete media without IL-3. The Ba/F3 cell line is rendered Gleevec resistant when the mutation in the Bcr/Abl tyrosine kinase […] is present. […] All assays are in triplicate.

The subject of a further series is GL261 glioma cells. In words: intracranial GL261 glioma survival study. In kind it is in vivo, C57BL/6 mice. Particulars: for Median survival / survival Range: C57BL/6 mice, intracranial GL261. As to the method: A brain tumor mouse xenograft study was conducted comparing KX2-361 and KX2-391 (KXO1) to Temodar®. The studies were conducted in C57BL/6 mice. GL261 glioma cells (1×10^5 in 5 μl DMEM) were implanted intracranial coordinates: bregma, lateral 2.0 mm, anterior 1.2 mm, 3.0 mm depth dura. Treatment was initiated 3 days post implantation. The groups were as follows (all doses in 100 μl H2O):
The median survival range and the log-rank (Mantel-Cox) statistical test results comparing the survival distributions of the samples.

Series [3] in a line: brain exposure after oral administration. In kind it is in vivo, male CD-1 mice. The conditions noted are these: for AUClast: Brain; for KX2-361 Brain Concentrations, Group A / KX2-361 Brain Concentrations, Group B / KX2-361 Brain Concentrations, Group C: Male CD-1 mice, single PO dose 10 mg/kg (Group 3). As to the method:
Plasma concentrations were measured in mice after oral administration. All doses were formulated in purified water. Four groups of male CD-1 mice were dosed after an overnight fast and fed 4 hours post-dose. Dosing was as follows:
Protein was precipitated with 0.25 mL acetonitrile for plasma, 0.25 mL for brain. After centrifugation, supernatant was directly injected into an LC/MS system. The limit of quantitation was 1 ng/mL using a 50 μL aliquot for plasma and a 50 μL, aliquot for brain. The standard curve was 1 to 1,000 ng/mL for both plasma and brain. HPLC conditions were as follows:
HPLC System: Shimadzu SCL-10 System
• Analytical Column: Aquasil C18 5 μm 100×2 mm column. • Column Temperature: Ambient temperature • Autosampler Temperature: Ambient temperature • Mobile Phase A) 10 mM Ammonium formate in water (pH 4). • B) Acetonitrile. • Flow Rate: 0.6 mL/min • Injection Volume: 2 μL • Gradient:
• Mass Spectrometry Conditions were as follows: • Instrument: ABI Sciex API 4000 • Mode: ESI+ • Experiment: MRM (multiple reaction monitoring) • Transitions: KX2-391: m/z 432.4→114.2 (Rt=3.11 minute) • KX2-361: m/z 406.1→253.2 (Rt=3.33 minute)

Description for COLO-320DM: Cell proliferation/growth inhibition was assessed using MTT colorimetric assay.
On Day 3, 10 μL MTT (5 mg/mL) was added to each well. Cells were then incubated in the presence of MTT for 4 hours at 37° C., appropriate CO2 conditions. After this incubation period, 90 μL 10% SDS(+HCl) was added to each well to lyse cells and solubilize formazan. Cells were then incubated overnight at 37° C., appropriate CO2 conditions.
The OD570 was measured using microplate reader. Growth inhibition curves and EC50/IC50 was determined using GraphPad Prism 4 statistical software.

As for `O=C(Cc1ccc(-c2ccc(OCCN3CCOCC3)cc2)cn1)NCc1ccccc1` [KXO1], the pIC50 with COLO-320DM is 7.52. The molecule further displayed an IC80 in the series with COLO-320DM of 80 nM. In addition, the IC90 in the series on COLO-320DM was determined as 144 nM. In addition, in the series with Shc Y239/240, the “phosphorylation of Shc Y239/240 (Src transphosphorylation)” value is “potent inhibitor”. In addition, the GI50 is 9.8 nM in the series on SKOV-3 (Ovarian); 13 nM in the series on K562 (CML); 12 nM in [1]; 25 nM and 32 nM with L3.6pl cells; 35 nM in series [2]. In addition, the “phosphorylation of Lck Y405” value in the series on Lck Y405 is listed as “not inhibited”.
As for `O=C(Cc1ccc(-c2ccc(N3CCOCC3)cc2)cn1)NCc1cccc(F)c1` [KX2-361], the values for the Median survival in the series with GL261 glioma cells (15 mg/kg bid oral) and with GL261 glioma cells (30 mg/kg bid oral) were 30.5 and 29, respectively. The “survival Range” value in the series on GL261 glioma cells (15 mg/kg bid oral) was 25-34; in the series on GL261 glioma cells (30 mg/kg bid oral), 23-32. Moreover, in the series with GL261 glioma cells (orally at 15 mg/kg/dose bid 7 hours apart), the “survival of mice bearing intracranial GL261 gliomas” value was “best results”. In addition, the results for the AUClast in [3] (single oral dose 10 mg/kg) and in [3] (single oral dose 50 mg/kg) were 656 ng·h/g and 3338 ng·h/g, respectively. The “KX2-361 Brain Concentrations, Group A” value is on record as “BLQ (BLQ: Below Limit of Quantitation (1 ng/mL))” in series [3] (0 hr), 43.98 ng/g in [3] (0.5 hr), 109.78 ng/g in series [3] (2 hr) and “BLQ (BLQ: Below Limit of Quantitation (1 ng/mL))” in series [3] (5 hr). Moreover, the “KX2-361 Brain Concentrations, Group B” value is given as “BLQ (BLQ: Below Limit of Quantitation (1 ng/mL))” in series [3] (0 hr), 138.55 ng/g in series [3] (0.5 hr), 334.71 ng/g in series [3] (1 hr) and 78.76 ng/g in series [3] (2 hr). In addition, the “KX2-361 Brain Concentrations, Group C” value in series [3] (0 hr) is recorded as “BLQ (BLQ: Below Limit of Quantitation (1 ng/mL))”; in series [3] (0.5 hr), 116.84 ng/g; in series [3] (1 hr) it was 273.32 ng/g; in series [3] (2 hr), 336.07 ng/g; in series [3] (5 hr), 47.85 ng/g. Further, the “AUClast Brain/AUClast Plasma Ratio” value in [3] (single oral dose 10 mg/kg) is recorded as 0.76.
